From patent publication US20230117324A1, “OXAZINE MONOACYLGLYCEROL LIPASE (MAGL) INHIBITORS” (Hoffmann-La Roche Inc., priority 2018, published 2023)

These compounds were tested against T1, MAGL (Homo sapiens, UniProt Q99685) (assay: MAGL inhibition, 2-AG assay (hydrolysis of 2-arachidonoylglycerol, arachidonic acid by mass spectrometry)). Settings: 2-AG assay (footnote [b]).
T1 sequence (Q99685 1-303): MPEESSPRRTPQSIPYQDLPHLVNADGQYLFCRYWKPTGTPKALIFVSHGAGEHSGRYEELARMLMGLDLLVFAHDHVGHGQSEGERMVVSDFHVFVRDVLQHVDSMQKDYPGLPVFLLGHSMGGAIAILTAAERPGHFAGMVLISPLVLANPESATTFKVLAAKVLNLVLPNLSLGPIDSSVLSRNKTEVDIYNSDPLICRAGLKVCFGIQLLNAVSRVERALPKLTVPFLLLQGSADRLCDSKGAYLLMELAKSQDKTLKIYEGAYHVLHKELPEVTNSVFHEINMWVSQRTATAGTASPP
Format: biochemical
Experimental: Alternatively, compounds were profiled for MAGL inhibitory activity by determining the enzymatic activity by following the hydrolysis of the natural substrate 2-arachidonoylglycerol (2-AG) resulting in arachidonic acid, which can be followed by mass spectrometry. This assay is hereinafter abbreviated “2-AG assay”.
The 2-AG assay was carried out in 384 well assay plates (PP, Greiner Cat #784201) in a total volume of 20 μL. Compound dilutions were made in 100% DMSO (VWR Chemicals 23500.297) in a polypropylene plate in 3-fold dilution steps to give a final concentration range in the assay from 12.5 μM to […]. 0.25 μL compound dilutions (100% DMSO) were added to 9 μL MAGL in assay buffer (50 mM TRIS (GIBCO, 15567-027), 1 mM EDTA (Fluka, 03690-100 mL), 0.01% (v/v) Tween. After shaking, the plate was incubated for 15 min at RT. To start the reaction, 10 μL 2-arachidonoylglycerol in assay buffer was added. The final concentrations in the assay was […] and 8 μM 2-arachidonoylglyerol. After shaking and 30 min incubation at RT, the reaction was quenched by the addition of 40 μL of ACN containing 4 μM of d8-arachidonic acid. The amount of arachidonic acid was traced by an online SPE system (Agilent Rapidfire) coupled to a triple quadrupole mass spectrometer (Agilent 6460). A C18 SPE cartridge (G9205A) was used in an ACN/water liquid setup. The mass spectrometer was operated in negative electrospray mode following the mass transitions 303.1→259.1 for arachidonic acid and 311.1→267.0 for d8-arachidonic acid. The activity of the compounds was calculated based on the ratio of intensities [arachidonic acid/d8-arachidonic acid].

| IC50 [nM] | SMILES |
| --- | --- |
| 318 | O=C1CO[C@H]2CCN(C(=O)N3CC(C(OCC(F)(F)F)c4ccc(F)cc4)C3)C[C@H]2N1 (single isomer, unassigned) [Example 106, (4aR,8aS)-6-[3-(R or S)-[(4-Fluorophenyl)-(2,2,2-trifluoroethoxy)methyl]azetidine-1-carbonyl]-4,4a,5,7,8,8a-hexahydropyrido[4,3-b][1,4]oxazin-3-one] |
| 0.4 | O=C1CO[C@H]2CCN(C(=O)N3CCC(C(c4ccccc4)c4cccc(OCCF)c4)CC3)C[C@H]2N1 (single isomer, unassigned) [Example 108, (4aR,8aS)-6-(4-((R or S)-(3-(2-Fluoroethoxy)phenyl)(phenyl)methyl)piperidine-1-carbonyl)hexahydro-2H-pyrido[4,3-b][1,4]oxazin-3(4H)-one] |
| 0.4 | O=C1CO[C@H]2CCN(C(=O)N3CCC(C(c4ccc(F)cc4)c4ccc(OCCF)cc4)CC3)C[C@H]2N1 (single isomer, unassigned) [Example 109, (4aR,8aS)-6-(4-((S or R)-(4-(2-Fluoroethoxy)phenyl)(4-fluorophenyl)methyl)piperidine-1-carbonyl)hexahydro-2H-pyrido[4,3-b][1,4]oxazin-3(4H)-one] |
| 49 | CC(OC1CN(C(=O)N2CC[C@@H]3OCC(=O)N[C@@H]3C2)C1)c1ccc(C(F)(F)F)cc1 (single isomer, unassigned) [Example 114, (4aR,8aS)-6-(3-(1-(R or S)-(4-(Trifluoromethyl)phenyl)ethoxy)azetidine-1-carbonyl)hexahydro-2H-pyrido[4,3-b][1,4]oxazin-3(4H)-one] |
| 79 | CC(OC1CN(C(=O)N2CC[C@@H]3OCC(=O)N[C@@H]3C2)C1)c1ccc(C(F)(F)F)cc1 (single isomer, unassigned) [Example 115, (4aR,8aS)-6-(3-(1-(S or R)-4-(Trifluoromethyl)phenyl)ethoxy)azetidine-1-carbonyl)hexahydro-2H-pyrido[4,3-b][1,4]oxazin-3(4H)-one] |
| 92 | CC(OC1CN(C(=O)N2CC[C@@H]3OCC(=O)N[C@@H]3C2)C1)c1ccc(F)cc1Cl (single isomer, unassigned) [Example 116, (4aR,8aS)-6-[3-(S or R)-]1-(2-Chloro-4-fluoro-phenyl)ethoxy]azetidine-1-carbonyl]-4,4a,5,7,8,8a-hexahydropyrido[4,3-b][1,4]oxazin-3-one] |
| 30 | CC(OC1CN(C(=O)N2CC[C@@H]3OCC(=O)N[C@@H]3C2)C1)c1ccc(F)cc1Cl (single isomer, unassigned) [Example 117, (4aR,8aS)-6-[3-(R or S)-[1-(2-Chloro-4-fluoro-phenyl)ethoxy]azetidine-1-carbonyl]-4,4a,5,7,8,8a-hexahydropyrido[4,3-b][1,4]oxazin-3-one] |
| 25 | COc1ccc(C(c2ccccn2)C2CCN(C(=O)N3CC[C@@H]4OCC(=O)N[C@@H]4C3)CC2)cc1OC (single isomer, unassigned) [Example 118, (4aR,8aS)-6-[4-[(R or S)-(3,4-dimethoxyphenyl)-(2-pyridyl)methyl]piperidine-1-carbonyl]-4,4a,5,7,8,8a-hexahydropyrido[4,3-b][1,4]oxazin-3-one] |
| 17 | COc1ccc(C(c2ccccn2)C2CCN(C(=O)N3CC[C@@H]4OCC(=O)N[C@@H]4C3)CC2)cc1OC (single isomer, unassigned) [Example 119, (4aR,8aS)-6-[4-[(S or R)-(3,4-dimethoxyphenyl)-(2-pyridyl)methyl]piperidine-1-carbonyl]-4,4a,5,7,8,8a-hexahydropyrido[4,3-b][1,4]oxazin-3-one] |
| 7 | COc1ccc(C(c2cccnc2)C2CCN(C(=O)N3CC[C@@H]4OCC(=O)N[C@@H]4C3)CC2)cc1OC (single isomer, unassigned) [Example 135, (4aR,8aS)-6-[4-[(R or S)-(3,4-Dimethoxyphenyl)-(3-pyridyl)methyl]piperidine-1-carbonyl]-4,4a,5,7,8,8a-hexahydropyrido[4,3-b][1,4]oxazin-3-one] |
| 14 | COc1ccc(C(c2cccnc2)C2CCN(C(=O)N3CC[C@@H]4OCC(=O)N[C@@H]4C3)CC2)cc1OC (single isomer, unassigned) [Example 136, (4aR,8aS)-6-[4-[(S or R)-(3,4-dimethoxyphenyl)-(3-pyridyl)methyl]piperidine-1-carbonyl]-4,4a,5,7,8,8a-hexahydropyrido[4,3-b][1,4]oxazin-3-one] |
| 51 | COc1ccc(C(c2ccncc2)C2CCN(C(=O)N3CC[C@@H]4OCC(=O)N[C@@H]4C3)CC2)cc1OC (single isomer, unassigned) [Example 149, (4aR,8aS)-6-[4-[(R or S)-(3,4-Dimethoxyphenyl)-(4-pyridyl)methyl]piperidine-1-carbonyl]-4,4a,5,7,8,8a-hexahydropyrido[4,3-b][1,4]oxazin-3-one] |
| 8 | COc1ccc(C(c2ccncc2)C2CCN(C(=O)N3CC[C@@H]4OCC(=O)N[C@@H]4C3)CC2)cc1OC (single isomer, unassigned) [Example 150, (4aR,8aS)-6-[4-[(S or R)-(3,4-Dimethoxyphenyl)-(4-pyridyl)methyl]piperidine-1-carbonyl]-4,4a,5,7,8,8a-hexahydropyrido[4,3-b][1,4]oxazin-3-one] |
| 1 | CC(OC1CN(c2ccc(C3CN(C(=O)N4CC[C@@H]5OCC(=O)N[C@@H]5C4)C3)cc2)C1)C(F)(F)F (single isomer, unassigned) [Example 160, (4aR,8aS)-6-[3-[4-[3-[(1S or 1R)-2,2,2-Trifluoro-1-methyl-ethoxy]azetidin-1-yl]phenyl]azetidine-1-carbonyl]-4,4a,5,7,8,8a-hexahydropyrido[4,3-b][1,4]oxazin-3-one] |
| 4 | CC(OC1CN(c2ccc(C3CN(C(=O)N4CC[C@@H]5OCC(=O)N[C@@H]5C4)C3)cc2)C1)C(F)(F)F (single isomer, unassigned) [Example 161, (4aR,8aS)-6-[3-[4-[3-[(1R or 1S)-2,2,2-Trifluoro-1-methyl-ethoxy]azetidin-1-yl]phenyl]azetidine-1-carbonyl]-4,4a,5,7,8,8a-hexahydropyrido[4,3-b][1,4]oxazin-3-one] |
| 115 | CS(=O)(=O)c1cccc(C(c2cccnc2)C2CCN(C(=O)N3CC[C@@H]4OCC(=O)N[C@@H]4C3)CC2)c1 (single isomer, unassigned) [Example 175, (4aR,8aS)-6-[4-[(R or S)-(3-methylsulfonylphenyl)-(3-pyridyl)methyl]piperidine-1-carbonyl]-4,4a,5,7,8,8a-hexahydropyrido[4,3-b][1,4]oxazin-3-one] |
| 170 | CS(=O)(=O)c1cccc(C(c2cccnc2)C2CCN(C(=O)N3CC[C@@H]4OCC(=O)N[C@@H]4C3)CC2)c1 (single isomer, unassigned) [Example 176, (4aR,8aS)-6-[4-[(R or S)-(3-methylsulfonylphenyl)-(3-pyridyl)methyl]piperidine-1-carbonyl]-4,4a,5,7,8,8a-hexahydropyrido[4,3-b][1,4]oxazin-3-one] |
